{
  "source": "patent US20140127231A1",
  "about": "“p38 MAPK Pathway Inhibitors as Female-Specific Therapeutics” (UNIVERSITY OF VERMONT, priority 2012, published 2014)",
  "system": "TH1-mediated passive EAE",
  "assay": "Passive EAE induced by TH1 cells",
  "format": "in vivo, mice",
  "details": "polarized DLN cells transferred into naïve recipients, listed as SB",
  "from_the_text": "FIG. 5A is a schematic that illustrates that protocol of inducing passive EAE.\nBased on this and the observation that IL-17 is not absolutely required for EAE progression (Haak, S et al., 2009, J Clin Invest 119:61-69), it is possible that SB prevents EAE by inhibiting production of additional key pathogenic factors. Further, it is shown that TH1-mediated passive EAE is prevented by inhibition of p38 MAPK (FIG. 5). In these experiments, donor animals were immunized with MOG35-55, DLN cells were isolated at D10 and cultured under polarizing conditions, and cells were transferred into naïve recipients. […] As such, complementary genomic and proteomic approaches were used to identify these factors, which in the future may provide novel druggable targets for treatment of autoimmune disease. Because such approaches typically yield a large number of potential candidates, a prioritizing/“funneling” scheme was constructed to rule out irrelevant hits in screens. In particular, the sexual dimorphism in response to SB serves as a useful discriminatory tool in this regard.",
  "note": "“Also recorded” adds a separate entry of the source.",
  "data": [
    {"smiles": "C[S+]([O-])c1ccc(-c2nc(-c3ccncc3)c(-c3ccc(F)cc3)[nH]2)cc1", "note": "(centres unmarked) [SB203580]", "values": [
      {"measurement": "Cytokine production / inflammatory response", "value": "decreased cytokine production; also recorded: reduces the inflammatory response"},
      {"measurement": "EAE severity", "value": "reduces EAE severity; also recorded: prevents passive EAE induced by TH1 cells"}
    ]}
  ]
}
